Test results reported in patent publication US9181234B2, “Antibacterial compounds” (priority 2010, dated 2015).
Converted amounts (≈) assume the structure as drawn.

How the values were obtained:
[1] = test system: Enterococcus faecalis (Isolate ID ATCC 29212); experiment: Antibacterial activity, MIC, E. faecalis; type: cell-based; conditions: Gram positive strain, broth microdilution or agar dilution; for MIC: Enterococcus faecalis, ATCC29212
Procedure, shortened: (§1)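 Susceptibility testing run in liquid or on solid media, with MIC values obtained by the CLSI-described broth microdilution or agar dilution method.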

[2] = test system: Staphylococcus aureus (Isolate ID ATCC 29213); experiment: Antibacterial activity, MIC, S. aureus; type: cell-based; conditions: broth microdilution or agar dilution; for MIC: Staphylococcus aureus, ATCC29213, Gram positive strain
Procedure, shortened: as §1

[3] = physchem; conditions: for solubility at 24 h: pH 7.4, aqueous buffer, kinetic from dmso stock
Procedure, shortened: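 DMSO doubling dilutions were diluted twenty-fold into 100 mM citrate (pH 4), PBS (pH 7.4) or carbonate-bicarbonate (pH 9). After 24 h equilibration at room temperature, absorbance was read at 620 nm. The reported value is the highest concentration without measurable precipitate.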

[4] = test system: Streptococcus pyogenes (Isolate ID ATCC 51339); experiment: Antibacterial activity, MIC, S. pyogenes; type: cell-based; conditions: broth microdilution or agar dilution; for MIC: Streptococcus pyogenes, ATCC51339, Gram positive strain
Procedure, shortened: as §1

[5] = test system: Haemophilus influenzae (Isolate ID ATCC 49247); experiment: Antibacterial activity, MIC, H. influenzae; type: cell-based; conditions: Gram negative strain, broth microdilution or agar dilution; for MIC: Haemophilus influenzae, ATCC49247
Procedure, shortened: as §1

MIC [1]	MIC [2]	solubility at 24 h ([3]; Solubility (pH 7.4))	solubility at 24 h ([3]; Solubility Range)	MIC [4]	MIC [5]	solubility at 24 h ([3]; Max Solubility)	solubility at 24 h ([3]; Solubility Range (maximum solubility))	Structure (SMILES)	Antibacterial Activity (MIC) E. faecalis (ATCC 29212) [1]	Antibacterial Activity (MIC) S. aureus (ATCC 29213) ([2]; Gram positive strain)	Max Solubility ([3]; pH 4)	Solubility (pH 7.4) ([3]; pH 7.4)	Antibacterial Activity (MIC) S. pyogenes (ATCC 51339) ([4]; Gram positive strain)	Antibacterial Activity (MIC) H. influenzae (ATCC 49247) [5]
≤ 0.25 µg/mL	0.25 to 1 µg/mL (≈ 0.458 to 1.83 µM)	6.25 µg/mL (≈ 11.5 µM)	< 12.5 µg/mL	0.25 to 1 µg/mL (≈ 0.458 to 1.83 µM)	> 16 µg/mL			CCNC(=O)Nc1nc2cc(-c3cnc(N4CCC(=O)C(C)(C(=O)OC)C4)nc3)cc(-c3ccccn3)c2s1 (centres unmarked) [Compound 170]						
0.25 to 1 µg/mL (≈ 0.458 to 1.83 µM)	> 16 µg/mL	3.12 µg/mL (≈ 5.73 µM)	< 12.5 µg/mL	≤ 0.25 µg/mL	1 to 16 µg/mL (≈ 1.83 to 29.3 µM)			CCNC(=O)Nc1nc2cc(-c3cnc(N4CCC(C)(C(=O)OCC)CC4)nc3)cc(-c3ccccn3)c2s1 [Compound 171]						
≤ 0.25 µg/mL	1 to 16 µg/mL (≈ 1.83 to 29.2 µM)	12.5 µg/mL (≈ 22.8 µM)	12.5 to 400 µg/mL (≈ 22.8 to 730 µM)	≤ 0.25 µg/mL	1 to 16 µg/mL (≈ 1.83 to 29.2 µM)			CCNC(=O)Nc1nc2cc(-c3cnc(N4CCC(O)C(C)(C(=O)OC)C4)nc3)cc(-c3ccccn3)c2s1 (centres unmarked) [Compound 172]						
≤ 0.25 µg/mL	0.25 to 1 µg/mL (≈ 0.469 to 1.87 µM)	50 µg/mL (≈ 93.7 µM)	12.5 to 400 µg/mL (≈ 23.4 to 750 µM)	≤ 0.25 µg/mL	1 to 16 µg/mL (≈ 1.87 to 30 µM)			CCNC(=O)Nc1nc2cc(-c3cnc(N4CCC(O)(C(=O)OC)CC4)nc3)cc(-c3ccccn3)c2s1 [Compound 173]						
0.25 to 1 µg/mL (≈ 0.449 to 1.8 µM)	> 16 µg/mL	3.12 µg/mL (≈ 5.61 µM)	< 12.5 µg/mL	0.25 to 1 µg/mL (≈ 0.449 to 1.8 µM)	> 16 µg/mL			CCNC(=O)Nc1nc2cc(-c3cnc(N4CCC(C#N)(C(=O)OCC)CC4)nc3)cc(-c3ccccn3)c2s1 [Compound 174]						
≤ 0.25 µg/mL	0.25 to 1 µg/mL (≈ 0.457 to 1.83 µM)	25 µg/mL (≈ 45.7 µM)	12.5 to 400 µg/mL (≈ 22.8 to 730 µM)	≤ 0.25 µg/mL	1 to 16 µg/mL (≈ 1.83 to 29.2 µM)			CCNC(=O)Nc1nc2cc(-c3cnc(N4CCC(OC)(C(=O)OC)CC4)nc3)cc(-c3ccccn3)c2s1 [Compound 175]						
0.25 to 1 µg/mL (≈ 0.437 to 1.75 µM)	1 to 16 µg/mL (≈ 1.75 to 28 µM)	6.25 µg/mL (≈ 10.9 µM)	< 12.5 µg/mL	0.25 to 1 µg/mL (≈ 0.437 to 1.75 µM)	> 16 µg/mL			CCNC(=O)Nc1nc2cc(-c3cnc(N4CCC(C(=O)OC)(C(F)(F)F)C4)nc3)cc(-c3ccccn3)c2s1 (centres unmarked) [Compound 180]						

Further lines, the molecule ahead of its results:

Structure (SMILES)	MIC [1]	MIC [2]	solubility at 24 h ([3]; Solubility (pH 7.4))	solubility at 24 h ([3]; Solubility Range)	MIC [4]	MIC [5]	solubility at 24 h ([3]; Max Solubility)	solubility at 24 h ([3]; Solubility Range (maximum solubility))	Antibacterial Activity (MIC) E. faecalis (ATCC 29212) [1]	Antibacterial Activity (MIC) S. aureus (ATCC 29213) ([2]; Gram positive strain)	Max Solubility ([3]; pH 4)	Solubility (pH 7.4) ([3]; pH 7.4)	Antibacterial Activity (MIC) S. pyogenes (ATCC 51339) ([4]; Gram positive strain)	Antibacterial Activity (MIC) H. influenzae (ATCC 49247) [5]
CCNC(=O)Nc1nc2cc(-c3cnc(N4CCC(C(=O)OCC)(S(C)(=O)=O)CC4)nc3)cc(-c3ccccn3)c2s1 [Compound 176]	> 16 µg/mL	> 16 µg/mL	100 µg/mL (≈ 164 µM)	12.5 to 400 µg/mL (≈ 20.5 to 656 µM)	0.25 to 1 µg/mL (≈ 0.41 to 1.64 µM)	> 16 µg/mL								
CCNC(=O)Nc1nc2cc(-c3cnc(N4CCC(Cc5ccccc5)(C(=O)OCC)CC4)nc3)cc(-c3ccccn3)c2s1 [Compound 177]	> 16 µg/mL	> 16 µg/mL	12.5 µg/mL (≈ 20.1 µM)	12.5 to 400 µg/mL (≈ 20.1 to 643 µM)	> 16 µg/mL	> 16 µg/mL								
CCNC(=O)Nc1nc2cc(-c3cnc(N4CCC(C)(C(=O)OCC)CC4)nc3)cc(C3CCN(C(C)=O)CC3)c2s1 [Compound 178]									D (“D” activity >16 μg/mL)	D (“D” activity >16 μg/mL)	6.25 µg/mL	3.125 μg/mL	C (“C” activity >1.0 μg/mL-16 μg/mL)	D (“D” activity >16 μg/mL)
CCNC(=O)Nc1nc2cc(-c3cncc(N4CCC(C)(C(=O)O)CC4)c3)cc(-c3ccccn3)c2s1 [Compound 181]	≤ 0.25 µg/mL	0.25 to 1 µg/mL (≈ 0.484 to 1.94 µM)	≥ 800 µg/mL	> 800 µg/mL	≤ 0.25 µg/mL	1 to 16 µg/mL (≈ 1.94 to 31 µM)	≥ 800 µg/mL	> 800 µg/mL						
CCNC(=O)Nc1nc2cc(-c3ccc(C4=NOC(C)(C(=O)O)C4)nc3)cc(-c3ccccn3)c2s1 (centres unmarked) [Compound 183]	0.25 to 1 µg/mL (≈ 0.497 to 1.99 µM)	1 to 16 µg/mL (≈ 1.99 to 31.8 µM)	100 µg/mL (≈ 199 µM)	12.5 to 400 µg/mL (≈ 24.9 to 796 µM)	≤ 0.25 µg/mL	1 to 16 µg/mL (≈ 1.99 to 31.8 µM)								
CCNC(=O)Nc1nc2cc(-c3ccc(C4=NOC(C)(C(=O)OCC)C4)nc3)cc(-c3ccccn3)c2s1 (centres unmarked) [Compound 184]	≤ 0.25 µg/mL	≤ 0.25 µg/mL	6.25 µg/mL (≈ 11.8 µM)	< 12.5 µg/mL	≤ 0.25 µg/mL	1 to 16 µg/mL (≈ 1.88 to 30.2 µM)								
